Assay results reported in patent US20220289685A1, “ANTIMALARIAL HEXAHYDROPYRIMIDINE ANALOGUES” (UCB BIOPHARMA SRL, priority 2019, published 2022).
Counter-ions that a name gives are not always drawn.

These molecules were tested on Plasmodium falciparum 3D7 strain (assay: P. falciparum 3D7 asexual blood stage assay (SYBR green readout)). Conditions: P. falciparum 3D7 in human erythrocytes, 72 h incubation, SYBR green fluorescence; read-out: IC50.
Type: cell-based
Method: Asexual Blood Stage Assay
The assay used to measure the effect of test compounds on a bloodstream stage of Plasmodium falciparum: 3D7 strain employs SYBR green as the readout. This is a dye that binds to double stranded deoxyribonucleic acid (DNA) with a resulting increase in fluorescence, allowing detection of P. falciparum DNA in infected erythrocytes, and thereby providing a measure of parasite growth and propagation.
P. falciparum Culture Maintenance
Erythrocytes (A+ blood) were prepared for both parasite culture and assay by washing 4 times with incomplete media (15.9 g RPMI 1640 (25 mM HEPES, L-glutamine), 1 g NaHCO3, 2 g glucose, 400 μL gentacin (500 mg/mL), 2 mL hypoxanthine solution (13.6 g/L in 0.1M NaOH pH 7.3) in 1 litre of media). The cells were centrifuged at 1800 g for 5 minutes, before decanting the supernatant and re-suspending in fresh incomplete media. On the final wash, the cells were re-suspended in complete media (incomplete media with 5 g/L AlbumaxII), and centrifuged at 1800 g for 3 minutes. This cell sediment was treated as 100% haematocrit.
P. falciparum 3D7 was cultured in erythrocytes at 5% haematocrit in complete media at 37° C. (1% O2, 3% CO2, balance N2). Cultures were split on a weekly basis to achieve a 1% parasitaemia in erythrocites at 5% haematocrit in fresh media. Culture media is replaced by fresh media every other day (2 times during the week).
On day 1, test compounds were added to assay plates using Echo dispensing technology ([…] and 20 points titration). 50 nL of each compound dilution was added to 50 μL of culture (5% haematocrit, 0.5% parasitaemia) and incubated for 72 h at 37° C. (1% O2, 3% CO2, balance N2). Final concentrations of test compounds ranged from 50,000 nM to 15 nM, in […].
On day 4, 10 μL SYBR green (Invitrogen S7563 supplied as 10,000× concentrate in DMSO) pre-diluted to 3× concentrate with Lysis buffer (20 mM Tris pH 7.9, 5% EDTA, 0.16% w/v, 1.6% TX100 v/v) was added to the cultures and incubated in the dark, overnight, at room temperature.
On day 5, fluorescent signal was measured using a BioTek plate reader (excitation 485 nm, emission 528 nm). All data were processed using IDBS ActivityBase. Raw data were converted into percent inhibition through linear regression by setting the high inhibition control (mefloquine) as 100% and the no inhibition control (DMSO) as 0%. Quality control criteria for passing plates were as follows: Z′>0.5, S:B>3, 30% CV(no inhibition control)<15. The formula used to calculate Z′ is: […]
All EC50 curve fitting was undertaken using the following bi-phasic two site dose response using XLfit model 300 (IDBS):
where A=100 minus the top of the upper curve 1 and the bottom of lower curve; B=Hill slope; log(C)=IC50 concentration at lower site; log(D)=IC50 concentration at upper site; x=inhibitor concentration; and y=% inhibition.

| Structure (SMILES) | IC50 [nM] |
| --- | --- |
| COc1ncccc1C(=O)Nc1cccc([C@]2(C)CC(=O)N([C@@H]3CCO[C@H](C)C3)C(=N)N2)c1Cl (relative stereo) [Example 30, N-(2-Chloro-3-{(4S)-2-imino-4-methyl-1-[(2R*,4R*)-2-methyl-etrahydropyran-4-yl]-6-oxo-hexahydropyrimidin-4-yl]phenyl)-2-methoxypyridine-3-carboxamide trifluoroacetic acid salt] | 15 |

Same assay, conditions: Plasmodium falciparum, 3D7, Erythrocyte, 72 h

| Structure (SMILES) | IC50 [nM] |
| --- | --- |
| Cc1cc(Cl)cc(C(=O)Nc2cccc([C@]3(C)CC(=O)N([C@@H]4CCO[C@H](C)C4)C(=N)N3)c2Cl)c1 (relative stereo) [Example 22, 3-Chloro-N-(2-chloro-3-{(4S)-2-imino-4-methyl-1-[(2R*,4R*)-2-methyltetrahydropyran-4-yl]-6-oxo-hexahydropyrimidin-4-yl}phenyl)-5-methylbenzamide hydrochloride] | 9 |
| C[C@@H]1C[C@H](N2C(=N)N[C@](C)(c3cccc(NC(=O)c4cccc(C#N)c4)c3Cl)CC2=O)C[C@H](C)O1 (relative stereo) [Example 24, N-(2-Chloro-3-{(4S)-1-[(2S*,6R*)-2,6-dimethyltetrahydropyran-4-yl]-2-imino-4-methyl-6-oxohexahydro-pyrimidin-4-yl]phenyl)-3-cyano-benzamide hydrochloride] | 28 |
| C[C@@H]1C[C@H](N2C(=N)N[C@](C)(c3cccc(NC(=O)c4cccc(C#N)c4)c3Cl)CC2=O)CCC1(F)F (relative stereo) [Example 25, N-(2-Chloro-3-{(4S)-1-[(1R*,3R*)-4,4-difluoro-3-methylcyclohexyl]-2-imino-4-methyl-6-oxohexahydro-pyrimidin-4-yl]phenyl)-3-cyano-benzamide trifluoroacetic acid salt] | 87 |
| C[C@H]1C[C@@H](N2C(=N)N[C@](C)(c3cccc(NC(=O)c4cccc(C#N)c4)c3Cl)CC2=O)CCC1(F)F (relative stereo) [Example 26, N-(2-Chloro-3-{(4S)-1-[(1S*,3S*)-4,4-difluoro-3-methylcyclohexyl]-2-imino-4-methyl-6-oxohexahydro-pyrimidin-4-yl]phenyl)-3-cyano-benzamide trifluoroacetic acid salt] | 15 |
| C[C@@H]1C[C@H](N2C(=N)N[C@](C)(c3cccc(NC(=O)c4cn(C)c5ccccc45)c3Cl)CC2=O)CCO1 (relative stereo) [Example 27, N-(2-Chloro-3-{(4S)-2-imino-4-methyl-1-[(2R*,4R*)-2-methyl-tetrahydropyran-4-yl]-6-oxo-hexahydropyrimidin-4-yl}phenyl)-1-methylindole-3-carboxamide trifluoroacetic acid salt] | 29 |
| Cc1cc(C(=O)Nc2cccc([C@]3(C)CC(=O)N([C@@H]4CCO[C@H](C)C4)C(=N)N3)c2Cl)c2nccn2c1 (relative stereo) [Example 28, N-(2-Chloro-3-{(4S)-2-imino-4-methyl-1-[(2R*,4R*)-2-methyl-tetrahydropyran-4-yl]-6-oxo-hexahydropyrimidin-4-yl}phenyl)-6-methylimidazo[1,2-a]pyridine-8-carboxamide trifluoroacetic acid salt] | 24 |
| C[C@@H]1CC(N2C(=N)N[C@](C)(c3cccc(NC(=O)c4cccn5nnnc45)c3Cl)CC2=O)CCO1 (relative stereo) [Example 29, N-(2-Chloro-3-{(4S)-2-imino-4-methyl-1-[(2R*,4R*)-2-methyl-tetrahydropyran-4-yl]-6-oxo-hexahydropyrimidin-4-yl}phenyl)-tetrazolo[1,5-a] pyridine-8-carboxamide trifluoroacetic acid salt] | 23 |
| C[C@@H]1C[C@H](N2C(=N)N[C@](C)(c3cccc(NC(=O)c4cnc5ccccc5n4)c3Cl)CC2=O)CCO1 (relative stereo) [Example 31, N-(2-Chloro-3-{(4S)-2-imino-4-methyl-1-[(2R*,4R*)-2-methyl-tetrahydropyran-4-yl]-6-oxo-hexahydropyrimidin-4-yl}phenyl)-quinoxaline-2-carboxamide trifluoroacetic acid salt] | 13 |
| C[C@@H]1C[C@H](N2C(=N)N[C@](C)(c3cccc(NC(=O)c4cc(C(F)(F)F)nn4C)c3Cl)CC2=O)CCO1 (relative stereo) [Example 32, N-(2-Chloro-3-{(4S)-2-imino-4-methyl-1-[(2R*,4R*)-2-methyl-tetrahydropyran-4-yl]-6-oxo-hexahydropyrimidin-4-yl}phenyl)-2-methyl-5-(trifluoromethyl)-pyrazole-3-carboxamide trifluoroacetic acid salt] | 55 |
| C[C@@H]1C[C@H](N2C(=N)N[C@](C)(c3cccc(NC(=O)c4cnc5ccccc5c4)c3Cl)CC2=O)CCO1 (relative stereo) [Example 33, N-(2-Chloro-3-{(4S)-2-imino-4-methyl-1-[(2R*,4R*)-2-methyl-tetrahydropyran-4-yl]-6-oxo-hexahydropyrimidin-4-yl}phenyl)-quinoline-3-carboxamide trifluoroacetic acid salt] | 54 |
| Cc1cnc(C(=O)Nc2cccc([C@]3(C)CC(=O)N([C@@H]4CCO[C@H](C)C4)C(=N)N3)c2Cl)cn1 (relative stereo) [Example 34, N-(2-Chloro-3-{(4S)-2-imino-4-methyl-1-[(2R*,4R*)-2-methyl-tetrahydropyran-4-yl]-6-oxo-hexahydropyrimidin-4-yl]phenyl)-5-methylpyrazine-2-carboxamide trifluoroacetic acid salt] | 60 |
| C[C@@H]1C[C@H](N2C(=N)N[C@](C)(c3cccc(NC(=O)c4ccccc4F)c3Cl)CC2=O)CCO1 (relative stereo) [Example 35, N-(2-Chloro-3-{(4S)-2-imino-4-methyl-1-[(2R*,4R*)-2-methyl-tetrahydropyran-4-yl]-6-oxo-hexahydropyrimidin-4-yl}phenyl)-2-fluorobenzamide trifluoroacetic acid salt] | 11 |
| C[C@@H]1C[C@H](N2C(=N)N[C@](C)(c3cccc(NC(=O)c4ccc(F)c(F)c4)c3Cl)CC2=O)CCO1 (relative stereo) [Example 36, N-(2-Chloro-3-{(4S)-2-imino-4-methyl-1-[(2R*,4R*)-2-methyl-tetrahydropyran-4-yl]-6-oxo-hexahydropyrimidin-4-yl]phenyl)-3,4-difluorobenzamide trifluoroacetic acid salt] | 33 |
| C[C@@H]1C[C@H](N2C(=N)N[C@](C)(c3cccc(NC(=O)c4ccc(C(F)(F)F)cc4)c3Cl)CC2=O)CCO1 (relative stereo) [Example 37, N-(2-Chloro-3-{(4S)-2-imino-4-methyl-1-[(2R*,4R*)-2-methyl-tetrahydropyran-4-yl]-6-oxo-hexahydropyrimidin-4-yl}phenyl)-4-(trifluoromethyl)benzamide trifluoroacetic acid salt] | 207 |
| C[C@@H]1C[C@H](N2C(=N)N[C@](C)(c3cccc(NC(=O)c4cncnc4)c3Cl)CC2=O)CCO1 (relative stereo) [Example 38, N-(2-Chloro-3-{(4S)-2-imino-4-methyl-1-[(2R*,4R*)-2-methyl-tetrahydropyran-4-yl]-6-oxo-hexahydropyrimidin-4-yl]phenyl)-pyrimidine-5-carboxamide trifluoroacetic acid salt] | 110 |
| C[C@@H]1C[C@H](N2C(=N)N[C@](C)(c3cccc(NC(=O)c4cncc(Cl)c4)c3Cl)CC2=O)CCO1 (relative stereo) [Example 39, 5-Chloro-N-(2-chloro-3-{(4S)-2-imino-4-methyl-1-[(2R*,4R*)-2-methyltetrahydropyran-4-yl]-6-oxo-hexahydropyrimidin-4-yl}phenyl)-pyridine-3-carboxamide trifluoroacetic acid salt] | 19 |
| C[C@@H]1C[C@H](N2C(=N)N[C@](C)(c3cccc(NC(=O)c4cncc(F)c4)c3Cl)CC2=O)CCO1 (relative stereo) [Example 40, N-(2-Chloro-3-{(4S)-2-imino-4-methyl-1-[(2R*,4R*)-2-methyl-tetrahydropyran-4-yl]-6-oxo-hexahydropyrimidin-4-yl]phenyl)-5-fluoropyridine-3-carboxamide trifluoroacetic acid salt] | 34 |
